ChEMBL document CHEMBL1136496, “Synthesis and evaluation of optically pure dioxolanes as inhibitors of hepatitis C virus RNA replication” (Bioorg Med Chem Lett, 2003)

test system: Nucleic Acid; assay: Concentration required to inhibit HCV RNA replication was determined; type: functional, Hepacivirus hominis

EC50, > 50 µM:
C[C@H]1O[C@@H](CO)O[C@H]1n1ccc2c(N)ncnc21
Nc1ncnc2c1ccn2[C@H]1CO[C@@H](CO)O1
C[C@H]1O[C@@H](CO)O[C@@H]1n1ccc2c(N)ncnc21
C[C@H]1O[C@@H](CO)O[C@H]1n1ccc2c(O)nc(N)nc21
Nc1nc(O)c2ccn([C@H]3CO[C@@H](CO)O3)c2n1
Nc1ncnc2c1ccn2[C@@H]1CO[C@@H](CO)O1
